Assay results as given in US4035486A, “Medicament” (Centre d'Etudes Experimentales et Clinques de Physio …, priority 1974, dated 1977).

Columns and labels:
[1] = tested on: sections of the cerebral cortex of a rat stimulated by KCl; experiment: Action in vitro on consumption of oxygen, accumulation of lactic acid and consumption of glucose in rat cerebral cortex sections stimulated by KCl (Warburg technique, enzymatic determination); format: cell-based; conditions: for Accumulation of lactic acid / Consumption of glucose / Consumption of oxygen: rat cerebral cortex sections stimulated by KCl, 1 hour at 37°, ACh 2.7.10^-10 M, insulin 66.10^-4 U/I
From the text: 1. The investigation, on sections of a rat's brain which have been stimulated by KCl, of the variations in the consumption of oxygen, the production of lactic acid and the consumption of glucose, by WARBURG's conventional technique, after which these sections are subjected to the action of guanosine, ACh or insulin or guanosine in association with ACh or insulin. I. Action in vitro of guanosine, alone or in association with acetylcholine or insulin, on the consumption of oxygen, the accumulation of lactic acid and the consumption of glucose in sections of the cerebral cortex of a rat which have been stimulated by KCl. The animals which are used are male Wistar Vag rats with an average weight of 225/250 grammes, and they have been subjected to standard laboratory regime. The sections of tissue, which weigh between 15 and 20 mg, were taken from the cerebral cortex of the rat and allowed to incubate for 1 hour at 37° after being placed in a flask containing the Krebs-Ringer phosphate buffer having a KCl concentration of 10 percent. The substrate comprises 15 μ moles of glucose. The guanosine, […], is added to the flask simultaneously with the glucose and the buffer, whereas the acetylcholine 2.7.10^^-10 M and the insulin (Endopancrine) 66.10^-^4 μ/liter are placed in the lateral paunch and put into contact with the section of tissue at a time 0. The total volume of the mixture is 3 mls. The consumption of oxygen is measured according to Warburg's conventional method after a 1-hour period of incubation at 37°. It is expressed in μ moles of oxygen per hour and per gramme of tissue. The lactic acid and glucose are determined in the deproteinised incubation medium by an enzymatic method. The results are expressed in μ moles/h/g of tissue.

[2] = tested on: glycogen of the mouse brain; experiment: Cerebral glycogen in a mouse after injection of guanosine, insulin or both; format: in vivo; conditions: for glycogen of the mouse brain: 30 minutes before killing; for level of cerebral glycogen compared with the controls (in words): mouse, guanosine 100 mg/kg or 200 mg/kg, insulin 0.5 I.U./20 g, or insulin with guanosine 200 mg/kg
Procedure: 2. The investigation of the content of glycogen in the brain of a mouse under the action of quanosine or insulin or these two agents in association. The animals which are used are male mice with an average weight of 20-25 g. Five groups of animals were studied which had received respectively: 1st group: a isotonic salt solution by intraperitoneal injection. 2nd group: a dose of 100 mg/kg of guanosine by intraperitoneal injection. 3rd group: a dose of 200 mg/kg of guanosine by intraperitoneal injection. 4th group: a dose of 0.5 μI/20 g per mouse of insulin by subcutaneous injection. For these four groups the injection was made 30 minutes before the animals were killed. 5th group: an intraperitoneal injection of guanosine at a dose of 200 mg/kg 30 minutes before a sub-cutaneous injection of insulin at a dose of 0.5 μI/20 g per mouse. The animal is killed 30 minutes after the second injection by being totally immersed in liquid nitrogen. The brains are removed whilst they are still deep-frozen. The isolated glycogen is hydrolyzed by the enzyme amylo-α-1,4 -α-1,6 glucosidase which releases the glucose by hydrolysis of the α-(1 → 6) and α-(→ 4) bonds. The glucose is then converted, in a single stage, to 6-phosphogluconate by the enzymes : hexokinase and glucose-6-phosphate dehydrogenase. The formation of the nicotinamide adenine dinucleotide phosphate is then measured florometrically (NAHORSKI and ROGERS, Analyt. Biochem. 1972, 49, 492-497).

glycemia = experiment: Action of guanosine upon glycemia in the rabbit after intravenous injection; format: in vivo; conditions: insulin 0.5 I.U. per kg alone or with guanosine 100 mg per kg, followed to 240 min
Procedure: 3. The study of the variations in glycemia in a rabbit after an injection of either insulin or insulin in association with guanosine.
The animals which are used are male rabbits with a weight of 2.200 kg to 2.500 kg.
Four groups of animals were studied which had received by intravenous injection, respectively, in a volume of 10 ml:
1st group: an isotonic solution of sodium chloride.
2nd group: guanosine at the rate of 100 mg per kg of rabbit.
3rd group: insulin at the rate of 0.5 I.U. per kg of rabbit.
4th group: guanosine at the rate of 100 mg per kg of rabbit and insulin at the rate of 0.5 I.U. per kg of rabbit.
A catheter is inserted into the femoral artery, its distal end being joined to the skin in the caudal region, such that the blood may be removed without harming the rabbit.
The drugs were injected via a vein in the ear. The guanosine was dissolved in an isotonic sodium chloride solution to which 1.5% NaOH was added until the guanosine has been dissolved. The pH of the final solution was 9.
After the inspection the rabbits were given 30 minutes rest.
Arterial blood was removed on six occasions at the times t = 0 min; t = 15 min; t = 30 min; t = 60 min; t = 120 min; t = 240 min.
The glycemia values were determined by the enzymatic method of BOEHRINGER.

| Compound | increase in the consumption of oxygen ([1]; acetylcholine 2.7.10^-10 M, alone or with guanosine, rat cerebral cortex sections) [%] | Accumulation of lactic acid ([1]; guanosine 1.66.10^-4 M) [µmol/h/g] | Consumption of glucose ([1]; guanosine 1.66.10^-4 M) [µmol/h/g] | Consumption of oxygen ([1]; guanosine 1.66.10^-4 M) [µmol/h/g] | effect upon the accumulation of lactic acid (in words) ([1]; rat cerebral cortex sections, guanosine 1.66.10^-4 M) | effect upon the consumption of glucose (in words) ([1]; rat cerebral cortex sections, guanosine 1.66.10^-4 M, acetylcholine 2.7.10^-10 M) | effect upon the consumption of oxygen (in words) ([1]; rat cerebral cortex sections, guanosine 1.66.10^-4 M, acetylcholine 2.7.10^-10 M, insulin 66.10^-4 μ/liter) | glycogen of the mouse brain ([2]; guanosine 100 mg/kg intraperitoneal) | glycogen of the mouse brain ([2]; guanosine 200 mg/kg intraperitoneal) | level of cerebral glycogen compared with the controls (in words) [2] | increase in the consumption of glucose ([1]; insulin 66.10^-4 μ/liter, alone or with guanosine, rat cerebral cortex sections) [%] | glycogen of the mouse brain ([2]; insulin 0.5 I.U./20 g mouse subcutaneous) | return of the glycemia to its original level (in words) (glycemia) |
| --- | --- | --- | --- | --- | --- | --- | --- | --- | --- | --- | --- | --- | --- |
| CC(=O)OCC[N+](C)(C)C [ACh, acetylcholine, reference compound] | 25 | 98.8 ± 3.7 | 146 ± 13.9 | 134 ± 7.2 |  |  |  |  |  |  |  |  |  |
| Nc1nc2c(ncn2[C@@H]2O[C@H](CO)[C@@H](O)[C@H]2O)c(=O)[nH]1 [Guanosine, guanosine] |  | 88.2 ± 5.4 | 99.3 ± 9.1 | 93 ± 6 | has no effect | has no effect | has no effect | 151 ± 7 μ g of glucose equivalents per | 159 ± 8 μ g of glucose equivalents per | do not show any significant differences |  |  |  |
| insulin |  | 84.6 ± 5 | 168 ± 17 | 91.6 ± 5.3 |  |  |  |  |  | very much higher than that of the controls | 50 | 182 ± 10 μ g of glucose equivalents per | quickly returns to its original level |
